The target in this assay is T1, STIL CCD peptide (Homo sapiens, UniProt Q15468, L736E).
T1 construct: STIL CCD718–749 WT; made in house; host or cells: chemical synthesis (Fmoc-SPPS on rink amide, C-terminal amide)
T1 sequence (Q15468 718-749 L736E): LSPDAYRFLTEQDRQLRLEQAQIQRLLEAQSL
In words: Fluorescence-based binding (micro-scale thermophoresis instrument), self-association. The note with it: 5 µM labeled + unlabelled same peptide 9 nM–300 µM; 25 mM Na2PO4 pH 6.8, 5% DMSO.

Regarding “L SPDAYRF LTEQDRQ LRLEQAQ IQRLLEA QSL-NH2 [STIL CCD718–749 L736E, STIL CCD peptide with destabilising L736E mutation; PDB 8oyk]”, the “binding or oligomerization (in words)” value was “no binding or oligomerization”.
